{"source": "patent US8962528B2", "about": "“Penoxsulam as an herbicide in alfalfa” (Dow AgroSciences, LLC., priority 2011, dated 2015)", "key": {"[1]": {"system": "STEME = Stellaria media, chickweed", "test": "Field trial of weed control in dormant alfalfa", "type": "in vivo", "settings": "for Control % Visual STEME: 45 DAAA, POST, NOV/JAN", "experimental": "(§1) A field trial (California) was conducted in field-grown alfalfa using standard herbicide small plot research methodology. Plots were 7.5 ft by 20 ft long with 4 replicates per treatment. The alfalfa crop was already established the previous season and was grown using normal cultural practices for fertilization, seeding, watering, and maintenance to ensure good growth of the crop. All treatments in the field trials were applied using a CO2 backpack sprayer calibrated to apply 187 L/ha spray volume. Commercially available product of penoxsulam was mixed in water at appropriate formulated product rates to achieve the desired rates based on a unit area of application (hectare). Treatments were sprayed as a postemergence application to the soil when alfalfa was in the late dormant stage of growth. “Late dormant” growth stage is defined as when the crop is not actively growing during the winter season and just prior to emerging from dormancy and starting new growth for the growing season. Treatments were rated at 26 to 63 days after the application as compared to the untreated control plants, when the alfalfa crop was no longer dormant. Visual crop injury ratings were scored on a scale of 0 to 100 where 0 corresponds to no injury and 100 corresponds to complete control."}, "[2]": {"system": "CAPBP = Capsella bursa-pastoris, Shepherd's purse", "test": "Field trial of weed control in dormant alfalfa", "type": "in vivo", "settings": "for Control % Visual CAPBP: 45 DAAA, POST, NOV/JAN", "experimental": "as §1"}, "[3]": {"system": "POAAN = Poa annua, annual bluegrass", "test": "Field trial of weed control in dormant alfalfa", "type": "in vivo", "settings": "for Control % Visual POAAN: 45 DAAA, POST, NOV/JAN", "experimental": "as §1"}, "[4]": {"system": "alfalfa", "settings": "in vivo", "experimental": "as §1"}, "[5]": {"settings": "35 gr ai/ha + AGRI-DEX COC 2.33 liter/ha"}, "[6]": {"settings": "70 gr ai/ha + AGRI-DEX COC 2.33 liter/ha"}, "[7]": {"settings": "140 gr ai/ha + AGRI-DEX COC 2.33 liter/ha"}, "[8]": {"settings": "45DAAA, all rates, burndown and/or residual activity"}}, "data": [{"smiles": "COc1cnc(OC)n2nc(NS(=O)(=O)c3c(OCC(F)F)cccc3C(F)(F)F)nc12", "note": "[PENOXSULAM]", "values": [{"measurement": "Control % Visual STEME", "setting": "[1]; [5]", "result": 100, "unit": "a % Visual"}, {"measurement": "Control % Visual STEME", "setting": "[1]; [6]", "result": 100, "unit": "a % Visual"}, {"measurement": "Control % Visual STEME", "setting": "[1]; [7]", "result": 100, "unit": "a % Visual"}, {"measurement": "control of STEME (chickweed)", "setting": "[1]; [8]", "result": 100, "unit": "%"}, {"measurement": "Control % Visual CAPBP", "setting": "[2]; [5]", "result": 100, "unit": "a % Visual"}, {"measurement": "Control % Visual CAPBP", "setting": "[2]; [6]", "result": 100, "unit": "a % Visual"}, {"measurement": "Control % Visual CAPBP", "setting": "[2]; [7]", "result": 100, "unit": "a % Visual"}, {"measurement": "control of CAPBP (Sheperd's purse)", "setting": "[2]; [8]", "result": 100, "unit": "%"}, {"measurement": "Control % Visual POAAN", "setting": "[3]; [5]", "result": 65, "unit": "b % Visual"}, {"measurement": "Control % Visual POAAN", "setting": "[3]; [6]", "result": 79, "unit": "ab % Visual"}, {"measurement": "Control % Visual POAAN", "setting": "[3]; [7]", "result": 91, "unit": "a % Visual"}, {"measurement": "control of grass weed POAAN (annual bluegrass)", "setting": "[3]; 45DAAA, dependent on the rate applied", "result": "significant suppression/partial control"}, {"measurement": "% Visual Injury of alfalfa compared to the Untreated", "setting": "[4]", "result": "some slight visual injury"}, {"measurement": "alfalfa growth (% Visual Regrowth) as compared to the Untreated", "setting": "[4]", "result": "no effect"}, {"measurement": "alfalfa regrowth as compared to the Untreated", "setting": "[4]", "result": "no significant difference"}]}]}
